Here are results for one molecule from ChEMBL document CHEMBL4825757, “Optimization of 4,6-Disubstituted Pyrido[3,2-d]pyrimidines as Dual MNK/PIM Inhibitors to Inhibit Leukemia Cell Growth” (J Med Chem, 2021).

Activity calls are given as the source filed them. No cut-off for these calls is given here.

The test system of experiment [1] is MOLM-13. Description: Induction of apoptosis in human MOLM-13 cells assessed as late apoptotic cells at 20 uM incubated for 12 hrs by annexin-V and propidium iodide staining based flow cytometry analysis (reference value: 3.03%). It counts as functional.
For experiment [2], the target named is T1, Serine/threonine-protein kinase PIM (Homo sapiens) (UniProt P11309+Q9P1W9+Q86V86). Put plainly: Inhibition of PIM in human MOLM-13 cells assessed as reduction in phosphorylated 4EBP1 at 20 to 40 uM incubated for 12 hrs by western blot analysis. As to conditions: dose 20-40 µM. It counts as cell-based.
Experiment [3] concerns MOLM-13. Put plainly: Antiproliferative activity against human MOLM13 cells assessed as reduction of cell viability incubated for 72 hrs by trypan blue staining based cell counting analysis. It counts as functional.
Experiment [4] has as its system MOLM-13. Put plainly: Induction of apoptosis in human MOLM-13 cells assessed as late apoptotic cells at 40 uM incubated for 12 hrs by annexin-V and propidium iodide staining based flow cytometry analysis (reference value: 3.03%). It counts as functional.
The target in experiment [5] is T1, Serine/threonine-protein kinase PIM (Homo sapiens). Description: Inhibition of PIM in human MOLM-13 cells assessed as reduction of BAD phosphorylation at 20 to 40 uM incubated for 12 hrs by western blot analysis. Particulars: dose 20-40 µM. The format is cell-based.
In experiment [6] the test system is MOLM-13. Put plainly: Induction of apoptosis in human MOLM-13 cells assessed as live cells at 40 uM incubated for 12 hrs by annexin-V and propidium iodide staining based flow cytometry analysis (reference value: 91.49%). It counts as functional.
The subject of experiment [7] is MOLM-13. Description: Induction of cell cycle arrest in human MOLM-13 cells assessed as sub-G1 phase at 40 uM incubated for 12 hr by propidium iodide based flow cytometry analysis (Rvb= 4.78%). It counts as functional.
Experiment [8] relates to MOLM-13. Put plainly: Induction of apoptosis in human MOLM-13 cells assessed as early apoptotic cells at 20 uM incubated for 12 hrs by annexin-V and propidium iodide staining based flow cytometry analysis (reference value: 5.40%). The format is functional.
Experiment [9] deals with MOLM-13. Put plainly: Induction of apoptosis in human MOLM-13 cells assessed as early apoptotic cells at 40 uM incubated for 12 hrs by annexin-V and propidium iodide staining based flow cytometry analysis (reference value: 5.40%). It counts as functional.
Experiment [10] has as its system MOLM-13. Description: Induction of apoptosis in human MOLM-13 cells assessed as necrotic cells at 20 uM incubated for 12 hrs by annexin-V and propidium iodide staining based flow cytometry analysis (reference value: 0.06%). The format is functional.
The next experiment relates to HL-60. Put plainly: Antiproliferative activity against human HL-60 cells assessed as reduction of cell viability incubated for 72 hrs by trypan blue staining based cell counting analysis. The format is functional.
A further experiment relates to K562. Put plainly: Antiproliferative activity against human K562 cells assessed as reduction of cell viability incubated for 72 hrs by trypan blue staining based cell counting analysis. The format is functional.
For experiment [11], the system named is MOLM-13. Put plainly: Downregulation of c-myc levels in human MOLM-13 cells at 20 to 40 uM incubated for 12 hrs by western blot analysis. The format is functional, cell-based. Particulars: dose 20-40 µM.
For experiment [12], the system named is MOLM-13. Put plainly: Induction of apoptosis in human MOLM-13 cells assessed as necrotic cells at 40 uM incubated for 12 hrs by annexin-V and propidium iodide staining based flow cytometry analysis (reference value: 0.06%). The format is functional.
Experiment [13] concerns MOLM-13. Put plainly: Downregulation of cyclin-D1 levels in human MOLM-13 cells at 20 to 40 uM incubated for 12 hrs by western blot analysis. The format is functional, cell-based. As to conditions: dose 20-40 µM.
Experiment [14] relates to MOLM-13. Description: Induction of cell cycle arrest in human MOLM-13 cells assessed as sub-G1 phase at 20 uM incubated for 12 hr by propidium iodide based flow cytometry analysis (Rvb= 4.78%). It counts as functional.
Experiment [15] deals with MOLM-13. Description: Induction of cell cycle arrest in human MOLM-13 cells assessed as G1 phase at 40 uM incubated for 12 hr by propidium iodide based flow cytometry analysis (Rvb= 51.29%). The format is functional.
The subject of experiment [16] is MOLM-13. Description: Induction of apoptosis in human MOLM-13 cells assessed as live cells at 20 uM incubated for 12 hrs by annexin-V and propidium iodide staining based flow cytometry analysis (reference value: 91.49%). It counts as functional.
Experiment [17] deals with MOLM-13. Put plainly: Downregulation of mcl-1 levels in human MOLM-13 cells at 20 to 40 uM incubated for 12 hrs by western blot analysis. It counts as functional, cell-based. Particulars: dose 20-40 µM.
In experiment [18] the target is MAP kinase-interacting serine/threonine-protein kinase 1 (Homo sapiens, UniProt Q9BUB5). Description: Inhibition of MKN1 (unknown origin) at 1 uM in presence of ATP by HTRF assay.
The test system of experiment [19] is MOLM-13. Description: Induction of cell cycle arrest in human MOLM-13 cells assessed as G1 phase at 20 uM incubated for 12 hr by propidium iodide based flow cytometry analysis (Rvb= 51.29%). It counts as functional.

T1 sequence (P11309 whole entry, looked up): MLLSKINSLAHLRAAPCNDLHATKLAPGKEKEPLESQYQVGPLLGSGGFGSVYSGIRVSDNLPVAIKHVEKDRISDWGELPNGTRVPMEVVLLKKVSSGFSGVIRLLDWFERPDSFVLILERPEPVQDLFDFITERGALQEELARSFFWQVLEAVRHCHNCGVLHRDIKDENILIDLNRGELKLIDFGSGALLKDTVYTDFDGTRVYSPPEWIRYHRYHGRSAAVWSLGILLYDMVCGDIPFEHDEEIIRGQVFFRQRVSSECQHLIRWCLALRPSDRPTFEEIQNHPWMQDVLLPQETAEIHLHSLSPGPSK
T1 sequence (Q9P1W9 whole entry, looked up): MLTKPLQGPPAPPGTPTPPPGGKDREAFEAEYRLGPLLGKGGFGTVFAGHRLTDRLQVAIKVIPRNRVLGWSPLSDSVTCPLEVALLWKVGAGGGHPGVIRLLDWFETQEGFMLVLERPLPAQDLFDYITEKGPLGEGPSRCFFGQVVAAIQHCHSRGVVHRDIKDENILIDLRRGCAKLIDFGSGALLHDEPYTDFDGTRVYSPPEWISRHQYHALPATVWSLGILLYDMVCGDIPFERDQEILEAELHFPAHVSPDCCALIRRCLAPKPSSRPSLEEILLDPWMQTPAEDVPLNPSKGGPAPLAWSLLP
Sequence of MAP kinase-interacting serine/threonine-protein kinase 1 (Q9BUB5 whole entry, looked up): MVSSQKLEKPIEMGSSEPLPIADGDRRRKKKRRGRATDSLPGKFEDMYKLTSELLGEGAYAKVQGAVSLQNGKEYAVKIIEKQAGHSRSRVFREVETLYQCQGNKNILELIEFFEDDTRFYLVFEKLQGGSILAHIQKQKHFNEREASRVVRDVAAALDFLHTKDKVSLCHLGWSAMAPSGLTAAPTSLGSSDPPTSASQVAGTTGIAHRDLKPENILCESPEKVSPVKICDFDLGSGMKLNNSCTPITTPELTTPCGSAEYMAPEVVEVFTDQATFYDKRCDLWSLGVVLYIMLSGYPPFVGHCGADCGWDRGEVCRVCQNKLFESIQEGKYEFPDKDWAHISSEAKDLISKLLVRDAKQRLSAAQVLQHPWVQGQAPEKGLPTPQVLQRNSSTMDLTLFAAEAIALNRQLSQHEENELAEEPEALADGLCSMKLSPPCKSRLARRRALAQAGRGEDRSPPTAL

As for `Nc1ncnc2[nH]nc(Nc3ccc(F)cc3)c12`, the Activity in the experiment on MOLM-13 [1] was found to be 3.05%; in the experiment with MOLM-13 [4] it was 2.73%; in the experiment with MOLM-13 [6], 83.9%; with MOLM-13 [7], 12.28%; with MOLM-13 [8] it was 9.93%; in the experiment on MOLM-13 [9], 13.19%. Further, the Activity is 0.04% with MOLM-13 [10]; 0.18% with MOLM-13 [12]; 8.3% with MOLM-13 [14]; 62.49% in the experiment on MOLM-13 [15]; 86.89% in the experiment with MOLM-13 [16]; 65.2% in the experiment with MOLM-13 [19]. Moreover, the inhibition result in experiment [2] was “Active”. Moreover, the 50% growth inhibitory concentration (GI50) is 9.88 µM in the experiment with MOLM-13 [3], 7.26 µM in the experiment with HL-60 and 28.8 µM in the experiment on K562. Moreover, the inhibition entry in experiment [5] was “inactive”. The outcome in the experiment on MOLM-13 [11], in the experiment with MOLM-13 [13] and in the experiment on MOLM-13 [17] was Active. The inhibition in [18] was 78%.
